Like-named read-outs stand apart in the source and are kept apart here.
Experiments:
5-HT1A receptor [1] = target: T1, 5-HT1A receptor (Homo sapiens, UniProt P08908); test: 5-HT1A receptor radioligand competition assay (SPA, 8-hydroxy-DPAT [3H]); type: binding; conditions: 0.5 nM hot 8-hydroxy-DPAT, membranes containing 5-HT1A
T1 construct: purchased Perkin Elmer 6110501400UA
T1 sequence (P08908 1-422): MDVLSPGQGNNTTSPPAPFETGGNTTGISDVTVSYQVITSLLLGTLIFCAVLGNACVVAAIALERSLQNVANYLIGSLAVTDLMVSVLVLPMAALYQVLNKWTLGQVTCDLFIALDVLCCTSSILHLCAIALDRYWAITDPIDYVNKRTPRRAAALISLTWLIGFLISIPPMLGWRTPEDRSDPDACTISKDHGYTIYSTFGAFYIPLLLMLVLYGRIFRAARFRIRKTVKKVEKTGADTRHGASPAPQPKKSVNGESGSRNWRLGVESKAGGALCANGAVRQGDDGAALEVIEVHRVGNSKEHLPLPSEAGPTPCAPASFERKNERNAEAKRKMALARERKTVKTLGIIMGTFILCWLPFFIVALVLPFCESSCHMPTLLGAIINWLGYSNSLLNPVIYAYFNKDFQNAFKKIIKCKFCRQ

5-HT2A receptor [2] = target: T2, 5-HT2A receptor (Homo sapiens, UniProt P28223); test: biochemical; type: binding; conditions: for inhibition at 10 µM: read-out: HT2A, percent of control-specific binding
T2 construct: host or cells: HEK-293 cells (membrane preparation)
T2 sequence (P28223 whole entry): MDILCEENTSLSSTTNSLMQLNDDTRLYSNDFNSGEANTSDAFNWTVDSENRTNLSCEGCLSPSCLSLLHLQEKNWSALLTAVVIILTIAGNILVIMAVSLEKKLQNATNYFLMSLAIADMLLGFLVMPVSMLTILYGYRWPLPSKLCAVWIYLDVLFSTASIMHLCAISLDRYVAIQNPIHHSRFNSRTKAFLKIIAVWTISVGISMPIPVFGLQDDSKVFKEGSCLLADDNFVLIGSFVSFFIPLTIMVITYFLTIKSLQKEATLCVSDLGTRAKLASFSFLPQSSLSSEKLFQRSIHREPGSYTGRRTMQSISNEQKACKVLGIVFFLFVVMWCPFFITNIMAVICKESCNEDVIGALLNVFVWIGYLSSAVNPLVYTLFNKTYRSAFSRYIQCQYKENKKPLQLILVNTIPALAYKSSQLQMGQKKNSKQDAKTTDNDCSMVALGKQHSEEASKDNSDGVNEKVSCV

5-HT1A receptor [3] = target: T1, 5-HT1A receptor; test: Functional 5-HT1A receptor cAMP assay in CHO-K1/5-HT1A/Gα15 cells; type: cell-based
5-HT7 receptor = target: T3, 5-HT7 receptor (Homo sapiens, UniProt P34969); test: Eurofins Cerep competition binding assay at 5-HT7 receptor; conditions: 10 μM test ligand, [3H]LSD, recombinant receptor in HEK-293 cells; for inhibition at 10 µM: read-out: HT7, percent of control-specific binding
T3 construct: host or cells: HEK-293 cells (membrane preparation)
T3 sequence (P34969 whole entry): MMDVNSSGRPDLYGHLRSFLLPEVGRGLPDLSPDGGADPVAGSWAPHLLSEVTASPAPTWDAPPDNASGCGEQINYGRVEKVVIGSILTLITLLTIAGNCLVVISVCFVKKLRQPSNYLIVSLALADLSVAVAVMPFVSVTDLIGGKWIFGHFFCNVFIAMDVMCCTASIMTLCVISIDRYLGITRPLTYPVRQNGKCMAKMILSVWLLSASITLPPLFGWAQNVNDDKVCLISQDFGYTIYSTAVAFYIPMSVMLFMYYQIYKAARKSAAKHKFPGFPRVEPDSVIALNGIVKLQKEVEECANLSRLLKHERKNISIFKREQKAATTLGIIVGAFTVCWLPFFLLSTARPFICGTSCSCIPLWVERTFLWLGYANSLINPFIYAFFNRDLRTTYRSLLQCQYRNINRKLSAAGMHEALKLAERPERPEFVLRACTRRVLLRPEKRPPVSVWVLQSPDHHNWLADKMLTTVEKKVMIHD

alpha2A receptor = target: T4, alpha2A receptor (Homo sapiens, UniProt P08913); test: Eurofins Cerep competition binding assay at alpha2A receptor; conditions: 10 μM test ligand; [3H]RX 821002; recombinant receptor in CHO cells
T4 construct: host or cells: CHO cells (membrane preparation)
T4 sequence (P08913 1-465): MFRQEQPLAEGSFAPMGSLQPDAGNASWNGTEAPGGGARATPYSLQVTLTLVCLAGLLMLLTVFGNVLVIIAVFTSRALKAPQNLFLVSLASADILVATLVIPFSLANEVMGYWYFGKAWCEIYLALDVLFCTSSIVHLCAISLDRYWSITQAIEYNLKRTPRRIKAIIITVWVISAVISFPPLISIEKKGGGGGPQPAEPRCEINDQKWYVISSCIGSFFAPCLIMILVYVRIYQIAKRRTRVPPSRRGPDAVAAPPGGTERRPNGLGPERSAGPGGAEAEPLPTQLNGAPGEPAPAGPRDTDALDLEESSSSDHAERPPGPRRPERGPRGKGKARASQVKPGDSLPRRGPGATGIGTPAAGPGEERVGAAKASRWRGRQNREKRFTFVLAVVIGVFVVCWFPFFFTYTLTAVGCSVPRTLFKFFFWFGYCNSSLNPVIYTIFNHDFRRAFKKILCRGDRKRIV

5-HT1A receptor [4] = target: T1, 5-HT1A receptor; test: Eurofins Cerep competition binding assay at 5-HT1A receptor; conditions: 10 μM test ligand, [3H]8-OH-DPAT, recombinant receptor in HEK-293 cells; for inhibition at 10 µM: read-out: HT1A, percent of control-specific binding
[5] = target: T5, norepinephrine transporter (NET) (Homo sapiens, UniProt P23975); test: Eurofins Cerep competition binding assay at norepinephrine transporter; conditions: for inhibition at 10 µM: read-out: NET, percent of control-specific binding; for NET, percent of control-specific binding: 10 μM test ligand, [3H]nisoxetine, recombinant transporter in CHO cells
T5 construct: host or cells: CHO cells (membrane preparation)
T5 sequence (P23975 whole entry): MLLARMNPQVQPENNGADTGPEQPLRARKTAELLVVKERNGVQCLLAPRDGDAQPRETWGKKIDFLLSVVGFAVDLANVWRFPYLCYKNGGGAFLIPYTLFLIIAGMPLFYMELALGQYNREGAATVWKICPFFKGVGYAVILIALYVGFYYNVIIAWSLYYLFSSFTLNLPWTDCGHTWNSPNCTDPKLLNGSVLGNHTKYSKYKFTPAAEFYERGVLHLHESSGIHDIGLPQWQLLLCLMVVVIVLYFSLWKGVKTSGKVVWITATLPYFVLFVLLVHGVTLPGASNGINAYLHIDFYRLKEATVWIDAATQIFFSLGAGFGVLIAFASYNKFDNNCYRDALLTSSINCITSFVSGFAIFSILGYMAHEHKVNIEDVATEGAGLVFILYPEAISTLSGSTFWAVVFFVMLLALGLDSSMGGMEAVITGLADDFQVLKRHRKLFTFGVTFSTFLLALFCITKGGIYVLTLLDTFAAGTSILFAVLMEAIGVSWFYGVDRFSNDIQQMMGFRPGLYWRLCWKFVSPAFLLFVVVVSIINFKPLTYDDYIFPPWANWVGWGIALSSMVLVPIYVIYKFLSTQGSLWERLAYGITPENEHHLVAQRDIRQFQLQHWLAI

[6] = target: T6, serotonin transporter (SERT) (Homo sapiens, UniProt P31645); test: biochemical; type: binding; conditions: for inhibition at 10 µM: read-out: SERT, percent of control-specific binding; for SERT, percent of control-specific binding: 10 µM
T6 construct: host or cells: CHO cells (membrane preparation)
T6 sequence (P31645 whole entry): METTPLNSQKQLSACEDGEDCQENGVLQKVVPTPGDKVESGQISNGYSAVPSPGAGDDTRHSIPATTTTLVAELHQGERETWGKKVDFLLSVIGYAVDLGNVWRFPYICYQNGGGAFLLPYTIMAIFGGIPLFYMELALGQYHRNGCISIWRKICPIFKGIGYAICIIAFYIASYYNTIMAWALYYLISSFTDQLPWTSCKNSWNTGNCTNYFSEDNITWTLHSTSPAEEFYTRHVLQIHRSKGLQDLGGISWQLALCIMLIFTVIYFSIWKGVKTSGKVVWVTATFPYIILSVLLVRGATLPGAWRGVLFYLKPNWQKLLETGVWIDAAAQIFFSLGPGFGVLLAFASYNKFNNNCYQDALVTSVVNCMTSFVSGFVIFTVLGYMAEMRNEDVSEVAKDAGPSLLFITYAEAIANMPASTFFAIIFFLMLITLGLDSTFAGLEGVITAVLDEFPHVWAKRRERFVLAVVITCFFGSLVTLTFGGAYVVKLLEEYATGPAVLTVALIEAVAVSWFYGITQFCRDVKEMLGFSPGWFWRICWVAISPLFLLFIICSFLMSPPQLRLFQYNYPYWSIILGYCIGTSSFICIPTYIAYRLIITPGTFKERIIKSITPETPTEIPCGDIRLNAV

[7] = target: T7, dopamine transporter (DAT) (Homo sapiens, UniProt Q01959); test: Eurofins Cerep competition binding assay at dopamine transporter; conditions: for inhibition at 10 µM: read-out: DAT, percent of control-specific binding; for DAT, percent of control-specific binding: 10 μM test ligand, [3H]BTCP, recombinant transporter in CHO cells
T7 construct: host or cells: CHO cells (membrane preparation)
T7 sequence (Q01959 whole entry): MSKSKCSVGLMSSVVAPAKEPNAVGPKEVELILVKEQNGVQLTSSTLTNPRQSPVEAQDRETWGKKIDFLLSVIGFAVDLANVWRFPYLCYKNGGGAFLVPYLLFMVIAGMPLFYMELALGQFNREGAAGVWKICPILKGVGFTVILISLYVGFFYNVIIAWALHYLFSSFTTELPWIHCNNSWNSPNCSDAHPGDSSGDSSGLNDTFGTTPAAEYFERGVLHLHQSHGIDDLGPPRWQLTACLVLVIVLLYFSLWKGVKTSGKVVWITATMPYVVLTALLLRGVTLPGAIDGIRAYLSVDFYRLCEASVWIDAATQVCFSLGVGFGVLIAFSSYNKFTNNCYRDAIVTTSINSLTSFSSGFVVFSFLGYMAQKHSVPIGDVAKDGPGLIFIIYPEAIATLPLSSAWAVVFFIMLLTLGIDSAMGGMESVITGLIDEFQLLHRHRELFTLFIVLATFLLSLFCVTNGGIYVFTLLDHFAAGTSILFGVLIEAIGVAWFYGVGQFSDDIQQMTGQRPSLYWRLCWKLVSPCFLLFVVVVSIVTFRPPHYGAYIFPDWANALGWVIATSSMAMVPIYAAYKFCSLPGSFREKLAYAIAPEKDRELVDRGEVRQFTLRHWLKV

5-HT2A receptor [8] = target: T2, 5-HT2A receptor; test: biochemical; type: binding
5-HT2C receptor = target: T8, 5-HT2C receptor (Homo sapiens, UniProt P28335); test: Eurofins Cerep competition binding assay at 5-HT2C receptor; conditions: 10 μM test ligand, [125I](±)DOI, recombinant receptor in HEK-293 cells; for inhibition at 10 µM: read-out: HT2C, percent of control-specific binding
T8 construct: host or cells: HEK-293 cells (membrane preparation)
T8 sequence (P28335 33-458): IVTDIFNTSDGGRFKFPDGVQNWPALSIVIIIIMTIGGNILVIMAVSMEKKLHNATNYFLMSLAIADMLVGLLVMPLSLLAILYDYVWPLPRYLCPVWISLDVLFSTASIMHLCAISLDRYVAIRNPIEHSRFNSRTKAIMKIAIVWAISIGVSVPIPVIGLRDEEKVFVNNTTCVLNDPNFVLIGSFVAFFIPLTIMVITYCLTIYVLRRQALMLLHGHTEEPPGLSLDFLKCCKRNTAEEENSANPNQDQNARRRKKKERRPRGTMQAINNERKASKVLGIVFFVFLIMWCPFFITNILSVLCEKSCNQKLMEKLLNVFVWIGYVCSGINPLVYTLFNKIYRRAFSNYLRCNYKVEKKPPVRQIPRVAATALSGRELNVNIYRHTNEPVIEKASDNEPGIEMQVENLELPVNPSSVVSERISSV

D3 receptor = target: T9, D3 receptor (Homo sapiens, UniProt P35462); test: Eurofins Cerep competition binding assay at D3 receptor; conditions: 10 μM test ligand, [3H]methylspiperone, recombinant receptor in CHO cells; for inhibition at 10 µM: read-out: D3, percent of control-specific binding
T9 construct: host or cells: CHO cells (membrane preparation)
T9 sequence (P35462 whole entry): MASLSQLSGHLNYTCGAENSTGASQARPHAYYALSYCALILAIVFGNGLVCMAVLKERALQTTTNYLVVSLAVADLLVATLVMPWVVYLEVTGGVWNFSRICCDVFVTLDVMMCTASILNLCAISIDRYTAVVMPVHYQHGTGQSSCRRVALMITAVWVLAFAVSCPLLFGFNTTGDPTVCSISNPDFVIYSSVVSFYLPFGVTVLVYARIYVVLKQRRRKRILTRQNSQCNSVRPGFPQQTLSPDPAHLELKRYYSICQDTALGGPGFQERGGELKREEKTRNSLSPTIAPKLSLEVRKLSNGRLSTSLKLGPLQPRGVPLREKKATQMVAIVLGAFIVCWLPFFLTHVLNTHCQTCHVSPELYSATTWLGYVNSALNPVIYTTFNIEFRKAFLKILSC

5-HT2B receptor = target: T10, 5-HT2B receptor (Homo sapiens, UniProt P41595); test: Eurofins Cerep competition binding assay at 5-HT2B receptor; conditions: 10 μM test ligand, [3H]mesulergine, recombinant receptor in CHO cells; for inhibition at 10 µM: read-out: HT2B, percent of control-specific binding
T10 construct: host or cells: CHO cells (membrane preparation)
T10 sequence (P41595 whole entry): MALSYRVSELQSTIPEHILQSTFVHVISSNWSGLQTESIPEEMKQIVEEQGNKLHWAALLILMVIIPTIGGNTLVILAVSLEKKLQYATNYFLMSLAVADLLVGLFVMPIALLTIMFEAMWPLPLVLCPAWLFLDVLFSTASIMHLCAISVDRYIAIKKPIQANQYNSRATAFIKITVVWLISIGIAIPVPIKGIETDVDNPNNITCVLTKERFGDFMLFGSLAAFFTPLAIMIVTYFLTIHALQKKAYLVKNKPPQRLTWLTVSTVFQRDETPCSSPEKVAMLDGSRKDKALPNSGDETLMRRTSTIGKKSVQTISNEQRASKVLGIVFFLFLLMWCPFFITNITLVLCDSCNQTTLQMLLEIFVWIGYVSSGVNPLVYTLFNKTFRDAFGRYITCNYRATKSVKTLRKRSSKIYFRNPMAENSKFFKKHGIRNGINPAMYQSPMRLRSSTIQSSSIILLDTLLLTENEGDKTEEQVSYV

MT1 receptor = target: T11, MT1 receptor (Homo sapiens, UniProt P48039); test: Eurofins Cerep competition binding assay at MT1 receptor; conditions: for inhibition at 10 µM: read-out: MT1, percent of control-specific binding; for MT1, percent of control-specific binding: 10 μM test ligand, [125I]2-iodomelatonin, recombinant receptor in CHO cells
T11 construct: host or cells: CHO cells (membrane preparation)
T11 sequence (P48039 whole entry): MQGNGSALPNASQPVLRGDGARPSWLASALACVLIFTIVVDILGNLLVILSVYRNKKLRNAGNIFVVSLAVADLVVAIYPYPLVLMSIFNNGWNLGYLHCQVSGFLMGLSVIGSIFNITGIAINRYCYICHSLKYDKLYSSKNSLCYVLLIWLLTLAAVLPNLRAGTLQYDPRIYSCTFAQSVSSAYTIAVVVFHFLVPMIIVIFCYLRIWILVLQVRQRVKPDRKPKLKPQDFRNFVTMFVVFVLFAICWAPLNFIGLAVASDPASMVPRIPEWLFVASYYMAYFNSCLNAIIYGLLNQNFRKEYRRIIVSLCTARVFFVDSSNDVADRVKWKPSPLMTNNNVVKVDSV

[9] = 10 μM test molecule, [125I](±)DOI, recombinant receptor in HEK-293 cells
[10] = 1 nM [3H]ketanserin, membranes containing 5-HT2A, SPA

Row | SMILES | Ki (5-HT1A receptor [1]) [µM] | inhibition at 10 µM (5-HT2A receptor [2]; [9]) [%] | EC50 (5-HT1A receptor [3]) [µM] | inhibition at 10 µM (5-HT7 receptor) [%] | α-2A, percent of control-specific binding (alpha2A receptor) [%] | inhibition at 10 µM (5-HT1A receptor [4]) [%] | inhibition at 10 µM [5] [%] | inhibition at 10 µM [6] [%] | inhibition at 10 µM [7] [%] | Ki (5-HT2A receptor [8]; [10]) [µM] | inhibition at 10 µM (5-HT2C receptor) [%] | inhibition at 10 µM (D3 receptor) [%] | inhibition at 10 µM (5-HT2B receptor) [%] | inhibition at 10 µM (MT1 receptor) [%] | HT7, percent of control-specific binding (5-HT7 receptor) [%] | HT1A, percent of control-specific binding (5-HT1A receptor [4]) [%] | NET, percent of control-specific binding [5] [%] | SERT, percent of control-specific binding [6] [%] | DAT, percent of control-specific binding [7] [%] | HT2C, percent of control-specific binding (5-HT2C receptor) [%] | other results
1 | C/C(=C\c1ccc2c(c1)OCO2)CN1CCCC1 [B(II)] | 824 | 53 | 40.1 | 68 | 75 | 79 | 43 | 95 | 69 | 7 | 45 | 55 | 87 | 20 |  |  |  |  |  |  | 
2 | CCN(CC)C/C=C/c1ccc2c(c1)OCO2 [D(I)] |  | 32 | > 1000 | 18 | 34 | 49 | 17 | 70 | 39 | 21 | 33 | 21 | 58 | 10 |  |  |  |  |  |  | 
3 | CNC(C)Cc1ccc2c(c1)OCO2 (stereo not drawn) [MDMA, reference compound] | 11 |  |  |  | 27 |  |  |  |  |  |  |  |  |  | 58 | 68 | 3 | 46 | 28 | 96 | HT2A, percent of control-specific binding (5-HT2A receptor [2]; 10 µM): 74%; EC50 (5-HT1A receptor [3]; reduction of cAMP in cells stimulated with 4 μM forskolin, CHO-K1/5-HT1A/Gα15, read-out: 5-HT1A, EC50): > 1000 µM; Ki (5-HT2A receptor [8]): 39.9 µM; D3, percent of control-specific binding (D3 receptor): 18%; HT2B, percent of control-specific binding (5-HT2B receptor): 85%; MT1, percent of control-specific binding (MT1 receptor): 1%
4 | CCOc1c(OC)cc(CCN)cc1OC [escaline] | 12.4 |  |  |  | 45 |  |  |  |  | 61 |  |  |  |  | 16 | 44 | 6 | 0 | 0 | 95 | HT2A, percent of control-specific binding (5-HT2A receptor [2]; [9]): 84%; D3, percent of control-specific binding (D3 receptor): 0%; HT2B, percent of control-specific binding (5-HT2B receptor): 81%; MT1, percent of control-specific binding (MT1 receptor): 0%

— patent US12358885B2, “Substituted n-propylamine fused heterocyclic mescaline derivatives” (Enveric Biosciences Canada Inc., priority 2022, dated 2025)
